Results on 2 compounds are retold here after patent US20230053524A1, “FUNGICIDES TO PREVENT AND CONTROL FUNGAL PATHOGENS” (priority 2020, published 2023).

What all share (assay type): cell-based
What all share (details): 168 h, read-out: ED50

One test has as its system Alternaria radicina. Put plainly: In vitro bioassay, mycelia growth on PDA (Example 1).
The test system of the next test is Fusarium graminearum. Put plainly: microbe, parasite or virus in culture.
In test [1] the test system is Plectosphaerella cucumerina. Put plainly: In vitro bioassay, mycelia growth on PDA (Example 1).

Consider `CS(=O)(=O)CCCCCCCCN=C=S` [0/100, 1-Isothiocyanato-8-(methylsulfonyl)-octane], for which the EC50 in the test on Alternaria radicina was 763 µM; in the test on Fusarium graminearum it was 536 µM; in test [1] it was 480 µM.

On to `C[S+]([O-])CCCCCCCCN=C=S` (stereo not drawn) [100/0, 1-Isothiocyanato-8-(methylsulfinyl)-octane], for which the EC50 in the test on Alternaria radicina is 228 µM; in the test on Fusarium graminearum, 331 µM; in test [1], 312 µM.
